Patent EP4471048A1, “PEPTIDE INHIBITORS OF INTERLEUKIN-23 RECEPTOR” (Zealand Pharma A/S, priority 2023, dated 2024)
Where a SMILES comes first, the peptide text is derived from it. Bridges are numbered along the chain shown (N, C = ends). [ ]: non-standard residue; d: D form. Trp(1-Me) = Cn1cc(C[C@H](N)C(=O)O)c2ccccc21; 2Nal = N[C@@H](Cc1ccc2ccccc2c1)C(=O)O; AEF = NCCOc1ccc(C[C@H](N)C(=O)O)cc1; 3Pal = N[C@@H](Cc1cccnc1)C(=O)O; αMeL = CC(C)C[C@](C)(N)C(=O)O; Dab = NCC[C@H](N)C(=O)O; βAla = NCCC(=O)O

Biological target: T1, human IL-23R (Homo sapiens, UniProt Q5VWK5)
T1 sequence (Q5VWK5 22-629): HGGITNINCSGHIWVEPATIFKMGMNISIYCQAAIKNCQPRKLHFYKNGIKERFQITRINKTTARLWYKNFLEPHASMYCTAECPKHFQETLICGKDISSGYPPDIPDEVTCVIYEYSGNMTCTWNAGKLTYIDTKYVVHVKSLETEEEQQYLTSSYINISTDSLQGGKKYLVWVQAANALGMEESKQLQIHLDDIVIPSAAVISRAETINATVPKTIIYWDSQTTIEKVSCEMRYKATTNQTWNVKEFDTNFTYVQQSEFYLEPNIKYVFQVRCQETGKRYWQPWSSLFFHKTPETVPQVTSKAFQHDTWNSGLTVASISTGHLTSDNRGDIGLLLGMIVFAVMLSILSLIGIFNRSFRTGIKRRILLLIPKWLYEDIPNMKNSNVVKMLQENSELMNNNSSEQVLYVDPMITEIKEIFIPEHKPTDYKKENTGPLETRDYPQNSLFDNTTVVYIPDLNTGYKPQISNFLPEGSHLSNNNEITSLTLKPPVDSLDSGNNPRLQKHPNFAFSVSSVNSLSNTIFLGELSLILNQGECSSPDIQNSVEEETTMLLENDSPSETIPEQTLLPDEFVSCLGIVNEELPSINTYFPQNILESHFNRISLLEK
Test: biochemical
Details: for Emax: read-out: % displacement (hIL-23R NIuc)
Outline: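 BRET displacement of a TAMRA-labelled reference compound from N-terminal Nanoluc-IL-23R fusion protein in membranes from stably transfected HEK293 cells. Incubation 2 h at room temperature, then Nanoluc substrate was added and the TAMRA/Nanoluc ratio read. IC50 and maximal displacement came from 4-parameter logistic fits.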

Row | Compound | % displacement (hIL-23R NIuc) [%] | IC50 [nM] | Emax [%]
1 | CC[C@H](C)[C@@H]1NC(=O)[C@@H]2CCCCNC(=O)CC[C@@H](C(=O)N[C@@H](CCN)C(=O)N[C@@H](Cc3cncnc3)C(=O)NC)NC(=O)[C@](C)(CC(C)C)NC(=O)[C@H](Cc3ccc4ccccc4c3)NC(=O)[C@H](Cc3ccc(OCCN)cc3)NC(=O)[C@H](CCC(=O)N2)NC(=O)[C@H](CCC(N)=O)NC(=O)[C@H](Cc2c[nH]c3ccccc23)NC(=O)[C@H](C(C)C)NC1=O [Compound 78, K(1c)(6c)^†IVWQE(6c)[Y(2-aminoethoxy)][2-Nal][2-Me-Leu]E(1c)[Dab][3-(3,5-Pyrimidyl)-Ala]-[NHMe]] | 100 | 3 | 
2 | CNC(=O)[C@H](Cc1cccnc1)NC(=O)[C@H](CCN)NC(=O)[C@@H]1CCC(=O)NCCCC[C@@H]2NC(=O)CC[C@H](NC(=O)[C@H](CCC(N)=O)NC(=O)[C@H](Cc3cn(C)c4ccccc34)NC(=O)CCNC2=O)C(=O)N[C@@H](Cc2ccc(OCCN)cc2)C(=O)N[C@@H](Cc2ccc3ccccc3c2)C(=O)N[C@@](C)(CC(C)C)C(=O)N1 [Compound 79, K(1c)(6c)^†[3-Aminopropanoyl][1-Me-Trp]QE(6c)[Y(2-aminoethoxy)][2-Nal][2-Me-Leu]E(1c)[Dab][3-(3-Pyridyl)-Ala]-[NHMe]] (K[βAla][Trp(1-Me)]QE[AEF][2Nal][αMeL]E[Dab][3Pal]-NHMe; lactam 1-9, N-5) |  | 0.02 | 100
3 | CNC(=O)[C@H](Cc1cccnc1)NC(=O)[C@H](CCN)NC(=O)[C@@H]1CCC(=O)NCCCC[C@@H]2NC(=O)CC[C@H](NC(=O)[C@H](CCC(N)=O)NC(=O)[C@H](Cc3c[nH]c4ccccc34)NC(=O)CCNC2=O)C(=O)N[C@@H](CC2CC2)C(=O)N[C@@H](Cc2ccc3ccccc3c2)C(=O)N[C@@](C)(CC(C)C)C(=O)N1 [Compound 82, K(1c)(6c)^†[3-Aminopropanoyl]WQE(6c)[Cyclopropyl-Ala][2-Nal][2-Me-Leu]E(1c)[Dab][3-(3-Pyridyl)-Ala]-[NHMe]] |  | 3.7 | 101
4 | CNC(=O)[C@H](Cc1cccnc1)NC(=O)[C@H](Cc1ccccn1)NC(=O)[C@@H]1CCC(=O)NCCCC[C@@H]2NC(=O)CC[C@H](NC(=O)[C@H](CCC(N)=O)NC(=O)[C@H](Cc3c[nH]c4ccccc34)NC(=O)CCNC2=O)C(=O)N[C@@H](Cc2ccc(OCCN)cc2)C(=O)N[C@@H](Cc2ccc3ccccc3c2)C(=O)N[C@@](C)(CC(C)C)C(=O)N1 [Compound 88, K(1c)(6c)^†[3-Aminopropanoyl]WQE(6c)[Y(2-aminoethoxy)][2-Nal][2-Me-Leu]E(1 c)[3-(2-Pyridyl)-Ala][3-(3-Pyridyl)-Ala]-[NHMe]] |  | 0.052 | 100
5 | CNC(=O)[C@H](Cc1cccnc1)NC(=O)[C@H](Cc1ccncc1)NC(=O)[C@@H]1CCC(=O)NCCCC[C@@H]2NC(=O)CC[C@H](NC(=O)[C@H](CCC(N)=O)NC(=O)[C@H](Cc3c[nH]c4ccccc34)NC(=O)CCNC2=O)C(=O)N[C@@H](Cc2ccc(OCCN)cc2)C(=O)N[C@@H](Cc2ccc3ccccc3c2)C(=O)N[C@@](C)(CC(C)C)C(=O)N1 [Compound 89, K(1c)(6c)^†[3-Aminopropanoyl]WQE(6c)[Y(2-aminoethoxy)][2-Nal][2-Me-Leu]E(1 c)[3-(4-Pyridyl)-Ala][3-(3-Pyridyl)-Ala]-[NHMe]] |  | 0.04 | 100
6 | CNC(=O)[C@H](Cc1cccnc1)NC(=O)[C@H](CCN)NC(=O)[C@@H]1CCC(=O)NCCC[C@@H]2NC(=O)CC[C@H](NC(=O)[C@H](CCC(N)=O)NC(=O)[C@H](Cc3c[nH]c4ccccc34)NC(=O)CNC2=O)C(=O)N[C@@H](Cc2ccc(OCCN)cc2)C(=O)N[C@@H](Cc2ccc3ccccc3c2)C(=O)N[C@@](C)(CC(C)C)C(=O)N1 [Compound 90, [Orn](1c)(6c)^†GWQE(6c)[Y(2-aminoethoxy)][2-Nal][2-Me-Leu]E(1c)[Dab][3-(3-Pyridyl)-Ala]-[NHMe]] |  | 6.4 | 101
